Measurements from ChEMBL document CHEMBL1158193, “Ability of different flavonoids to inhibit the procoagulant activity of adherent human monocytes” (J Nat Prod, 1996).

test system: Monocyte; test: Inhibition of procoagulant activity in monocyte from human blood assessed as counteraction of IL1-induced tissue factor expression after 18 hrs; assay type: functional, cell-based

Row | SMILES | IC50
1 | COc1cc(-c2oc3cc(O)cc(O)c3c(=O)c2O[C@@H]2O[C@H](CO)[C@@H](O)[C@H](O)[C@H]2O)ccc1O | 3800 nM
2 | O=c1cc(-c2ccc(O)c(-c3c(O)cc(O)c4c(=O)cc(-c5ccc(O)cc5)oc34)c2)oc2cc(O)cc(O)c12 [AMENTOFLAVONE] | 3000 nM
3 | O=c1cc(-c2ccc(O)cc2)oc2cc(O)cc(O)c12 [APIGENIN] | 1200 nM
4 | COc1cc2oc(-c3ccc(O)cc3)cc(=O)c2cc1CC=C(C)C [BAVACHININ] | 3200 nM
5 | O=c1cc(-c2ccccc2)oc2cc(O)cc(O)c12 [CHRYSIN] | 2400 nM
6 | COc1cc(-c2cc(=O)c3c(O)cc(O)cc3o2)ccc1O [CHRYSOERIOL] | 2600 nM
7 | COc1ccc(-c2cc(=O)c3c(O)cc(O)cc3o2)cc1O [DIOSMETIN] | 3000 nM
8 | O=c1c(O)c(-c2ccc(O)c(O)c2)oc2cc(O)ccc12 [FISETIN] | 3700 nM
9 | COc1cc(-c2oc3cc(O)ccc3c(=O)c2O)ccc1O [GERALDOL] | 2300 nM
10 | COc1ccc([C@@H]2CC(=O)c3c(O)cc(O)cc3O2)cc1O [HESPERETIN] | 2100 nM
11 | O=c1cc(-c2ccc(Oc3c(O)cc4oc(-c5ccc(O)cc5)cc(=O)c4c3O)cc2)oc2cc(O)cc(O)c12 [HINOKIFLAVONE] | 48 nM
12 | COc1cc(-c2oc3cc(O)cc(O)c3c(=O)c2O)ccc1O [ISORHAMNETIN] | 3800 nM
13 | COc1ccc(-c2oc3cc(O)cc(O)c3c(=O)c2O)cc1 [KAEMPFERIDE] | 5700 nM
14 | O=c1c(O)c(-c2ccc(O)cc2)oc2cc(O)cc(O)c12 [KAEMPFEROL] | 2700 nM
15 | O=c1cc(-c2ccc(O)c(O[C@@H]3O[C@H](CO)[C@@H](O)[C@H](O)[C@H]3O)c2)oc2cc(O[C@@H]3O[C@H](CO)[C@@H](O)[C@H](O)[C@H]3O)cc(O)c12 [LUTEOLIN-3',7-DIGLUCOSIDE] | 1550 nM
16 | O=c1cc(-c2ccc(O)c(O)c2)oc2cc(O)cc(O)c12 [LUTEOLIN] | 1500 nM
17 | COc1ccc(-c2cc(=O)c3c(OC)c(OC)c(OC)cc3o2)cc1OC [SINENSETIN] | 10000 nM
18 | COc1cc(-c2oc3cc(O)cc(O)c3c(=O)c2O)cc(OC)c1O [SYRINGETIN] | 2100 nM
19 | COc1ccc(-c2oc3cc(O)cc(O)c3c(=O)c2O)cc1O [TAMARIXETIN] | 4600 nM
20 | O=C(/C=C/c1ccc(O)cc1)OC[C@H]1O[C@@H](Oc2c(-c3ccc(O)cc3)oc3cc(O)cc(O)c3c2=O)[C@H](O)[C@@H](O)[C@@H]1O [TILIROSIDE] | 5200 nM

test system: Monocyte; test: Inhibition of procoagulant activity in monocyte from human blood assessed as counteraction of endotoxin-induced tissue factor expression after 18 hrs; assay type: functional, cell-based

Row | SMILES | IC50
21 | O=c1cc(-c2ccc(Oc3c(O)cc4oc(-c5ccc(O)cc5)cc(=O)c4c3O)cc2)oc2cc(O)cc(O)c12 [HINOKIFLAVONE] | 18 nM

test system: Monocyte; test: Inhibition of procoagulant activity in monocyte from human blood assessed as counteraction of IL1-induced tissue factor expression at 10 uM after 18 hrs measured as microunits of tissue factor/10^5 cells; assay type: functional

Row | SMILES | Activity
22 | COc1ccc(-c2cc(=O)c3c(OC)c(OC)c(OC)cc3o2)cc1O | 0
23 | CC(=O)OC[C@H]1O[C@@H](Oc2c(-c3ccc(O)c(O)c3)oc3cc(O)cc(O)c3c2=O)[C@H](O)[C@@H](O)[C@@H]1O | 12.4
24 | C[C@@H]1O[C@@H](OC[C@H]2O[C@@H](Oc3c(-c4ccccc4O)oc4cc(O)cc(O)c4c3=O)[C@H](O)[C@@H](O)[C@@H]2O)[C@H](O)[C@H](O)[C@H]1O | 28.4
25 | CCCC(=O)Oc1c(OC)cc(O)c2c(=O)c(O)c(-c3ccccc3)oc12 | 0
26 | COc1cc(-c2cc(=O)c3c(O)cc(O)cc3o2)cc(OC)c1OC | 0
27 | COc1ccc(-c2cc(=O)c3ccccc3o2)cc1 [4'-METHOXYFLAVONE] | 0
28 | O=C1c2c(O)cc(O)cc2O[C@H](c2ccc(O)c(O)c2)[C@H]1O [(+)-TAXIFOLIN] | 41
29 | COc1ccc(-c2cc(=O)c3c(O)cc(O)cc3o2)cc1 [ACACETIN] | 26
30 | O=c1c(O[C@@H]2O[C@H](CO)[C@@H](O)[C@H](O)[C@H]2O)c(-c2ccc(O)cc2)oc2cc(O)cc(O)c12 [ASTRAGALIN] | 0
31 | O=c1c(O[C@@H]2O[C@@H](CO)[C@H](O)[C@H]2O)c(-c2ccc(O)c(O)c2)oc2cc(O)cc(O)c12 [AVICULARIN] | 0
32 | O=c1cc(-c2ccccc2)oc2cc(O)c(O)c(O)c12 [BAICALEIN] | 55.2
33 | O=c1c(-c2ccc(O)cc2)coc2cc(O)ccc12 [DAIDZEIN] | 0
34 | O=c1c(-c2ccc(O)cc2)coc2cc(O[C@@H]3O[C@H](CO)[C@@H](O)[C@H](O)[C@H]3O)ccc12 [DAIDZIN] | 0
35 | O=c1c(O)c(-c2ccccc2O)oc2cc(O)cc(O)c12 [DATISCETIN] | 28.4
36 | O=C1c2ccc(O)cc2O[C@@H](c2cc(O)c(O)c(O)c2)[C@@H]1O [DIHYDROROBINETIN] | 0
37 | COc1ccc(-c2cc(=O)c3c(O)c(OC)c(OC)cc3o2)cc1O [EUPATORIN] | 0
38 | O=c1cc(-c2ccccc2)oc2ccccc12 [FLAVONE] | 6.8
39 | O=C1c2ccc(O)cc2O[C@H](c2ccc(O)c(O)c2)[C@H]1O [FUSTIN] | 0
40 | O=c1c(O)c(-c2ccccc2)oc2cc(O)cc(O)c12 [GALANGIN] | 0
41 | COc1cc(-c2cc(=O)c3c(O)c(OC)c(OC)cc3o2)cc(OC)c1OC [GRADENIN A] | 0

Row | SMILES | Activity
42 | O=c1cc(-c2ccc(Oc3c(O)cc4oc(-c5ccc(O)cc5)cc(=O)c4c3O)cc2)oc2cc(O)cc(O)c12 [HINOKIFLAVONE] | 0
43 | COc1cc([C@@H]2CC(=O)c3c(O)cc(O)cc3O2)ccc1O [HOMOERIODICTYOL] | 0
44 | COc1c(-c2ccccc2)oc2c(ccc3occc32)c1=O [KARANJIN] | 0
45 | O=c1cc(-c2ccc(O)c(O)c2)oc2cc(O)cc(O)c12 [LUTEOLIN] | 10.6
46 | O=c1c(O)c(-c2ccc(O)cc2O)oc2cc(O)cc(O)c12 [MORIN] | 0
47 | O=c1c(O)c(-c2cc(O)c(O)c(O)c2)oc2cc(O)cc(O)c12 [MYRICETIN] | 1.2
48 | C[C@H]1O[C@@H](Oc2c(-c3cc(O)c(O)c(O)c3)oc3cc(O)cc(O)c3c2=O)[C@@H](O)[C@@H](O)[C@@H]1O [MYRICITRIN] | 37.7
49 | O=C1C[C@@H](c2ccc(O)cc2)Oc2cc(O)cc(O)c21 [NARINGENIN] | 0
50 | C[C@@H]1O[C@@H](OC[C@H]2O[C@@H](Oc3cc(O)c4c(c3)O[C@H](c3ccc(O)cc3)CC4=O)[C@H](O)[C@@H](O)[C@@H]2O)[C@H](O)[C@H](O)[C@H]1O [NARIRUTIN] | 0
51 | COc1ccc([C@@H]2CC(=O)c3c(O)cc(O[C@@H]4O[C@H](CO)[C@@H](O)[C@H](O)[C@H]4O[C@@H]4O[C@@H](C)[C@H](O)[C@@H](O)[C@H]4O)cc3O2)cc1O [NEOHESPERIDIN] | 0
52 | O=c1c(-c2ccc3c(c2)OCO3)coc2cc(O)ccc12 [PSEUDOBAPTOGENIN] | 0
53 | O=c1c(O)c(-c2ccc(O)c(O)c2)oc2cc(O)c(O)c(O)c12 [QUERCETAGETIN] | 0
54 | O=c1c(O)c(-c2ccc(O)c(O)c2)oc2cc(O)cc(O)c12 [QUERCETIN] | 0
55 | COc1cc(O)c2c(=O)c(O)c(-c3ccc(O)c(O)c3)oc2c1 [RHAMNETIN] | 0
56 | O=c1c(O)c(-c2cc(O)c(O)c(O)c2)oc2cc(O)ccc12 [ROBINETIN] | 38.5
57 | C[C@@H]1O[C@@H](OC[C@H]2O[C@@H](Oc3c(-c4ccc(O)c(O)c4)oc4cc(O)cc(O)c4c3=O)[C@H](O)[C@@H](O)[C@@H]2O)[C@H](O)[C@H](O)[C@H]1O [RUTIN] | 9.1
58 | COc1ccc(-c2cc(=O)c3c(O)cc(O)c(-c4cc(-c5cc(=O)c6c(O)cc(OC)cc6o5)ccc4OC)c3o2)cc1 [SCIADOPITISIN] | 0
59 | COc1cc(C2Oc3cc([C@H]4Oc5cc(O)cc(O)c5C(=O)[C@@H]4O)ccc3OC2CO)ccc1O (stereo partly specified) [SILIBININ] | 0
60 | COc1ccc(-c2cc(=O)c3c(OC)c(OC)c(OC)c(OC)c3o2)cc1 [TANGERETIN] | 0
61 | COc1cc(O)c2c(=O)cc(-c3ccccc3)oc2c1 [TECHTOCHRYSIN] | 39
